# Experimental data from ChEMBL document CHEMBL5329193, “Targeting Mycobacterium tuberculosis iron-scavenging tools: a recent update on siderophores inhibitors” (RSC Med Chem, 2023).
# Tested on: Mycobacterium tuberculosis
# Test: Antitubercular activity against Multi-drug resistant Mycobacterium tuberculosis assessed as inhibition of bacterial growth incubated for 14 days by microplate alamar blue assay
# Assay type: functional
# Settings: 336 h, time 14 day
compound,measurement,value
CCCCCCCCCCCCCCCCC(=O)N(O)CCCC[C@H](NC(=O)[C@@H]1COC(c2ccccc2O)=N1)C(=O)NC[C@H](CC(=O)CCCO[C@H]1O[C@@H]2O[C@@]3(C)CC[C@H]4[C@H](C)CC[C@@H]([C@H]1C)[C@@]24OO3)C(=O)N[C@H]1CCCCN(O)C1=O,MIC,0.16 µg/mL
